Experimental data: US11208433B2, “Peptide for inhibiting skin inflammation and composition for preventing or treating skin inflammation containing the same” (AVIXGEN Inc., priority 2017, dated 2021)

Legend:
histamine = experiment: ELISA analysis of serum histamine in atopic dermatitis animal model; format: in vivo, NC/Nga mouse; conditions: day of autopsy (Day 14)
Protocol: (§1) After the ear auricle of the NC/Nga mouse was shaved with a razor, the epilating agent was applied in an appropriate amount for the complete depilation. After the epilating agent was wiped off, Then, 100 mg of the AD-inducing reagent shown in Table 2 as below was uniformly applied to the ear auricle using a micropipette tip, thereby inducing atopic dermatitis for the first time.
(§2) After shaving with a razor for necessary, 150 μL of a 4% SDS aqueous solution was uniformly applied to the ear auricle using a micropipette, dried with a cold air using a dryer, and air-dried for about 2 to 3 hours. Then, 100 mg of the same AD-inducing reagent was uniformly applied to the ear auricle using a micropipette tip, thereby inducing atopic dermatitis after 2 times. All treatments were carried out twice a week to be 6 times for a total of 3 weeks, thereby producing atopic dermatitis animal model.
(§3) The mice of groups 2 to 5 were obtained by the atopic dermatitis animal model prepared in Experimental Method 3 as described above.
(§4) The experimental substance and the control substance were uniformly applied to the ear auricle using a micropipette tip. From the day of the experimental substance administration (Day 0) to the day of the autopsy (Day 14), they were administered once a day for 2 weeks.
On the day of the autopsy, blood samples were collected from the abdominal vein using a syringe. The serum isolated from the blood was analyzed for IgE and histamine using an ELISA kit.

HeLa cells = experiment: ACP-tetrapeptide cell membrane permeation experiment; format: cell-based; conditions: 3, 15 and 30 μM ACP-tetrapeptide-FITC for 3 hours, fluorescence microscopy, FIG. 14
Protocol: HeLa cells were inoculated in a 12-well plate containing glass at a density of 1×10^5 cells/well and cultured for 24 hours to attach the cells to the glass. Then, HeLa cells were treated with 3 μM ACP-FITC peptide and 3, 15, and 30 μM ACP-tetrapeptide-FITC peptide for 3 hours. After 3 hours, the cells were washed three times with PBS. Then, the cells were fixed with 3.7% formaldehyde for 20 minutes and treated with PBS containing 0.2% Triton X-100 to increase cell permeability. Then, the cells were blocked with 3% BSA for 1 hour, reacted with a tubulin antibody (Santa Cruz Biotechnology, U.S.A.) at room temperature for 2 hours, and washed three times with PBS. Next, the cells were treated with a Cy3-conjugated secondary antibody (Jackson ImmunoResearch, USA) at room temperature for 1 hour, washed twice with PBS, and then stained with 4′,6-diamidino-2-phenylindole (DAPI) for 10 minutes. Finally, the HeLa cell-attached glass was removed and mounted on a sliding glass. The cells were observed under a fluorescence microscope (DMil, Leica, Germany).

[1] = tested on: atopic dermatitis animal model; experiment: Histopathological examination of ear epidermis and dermis (H&E scoring); format: in vivo, NC/Nga mouse; conditions: infiltration by inflammatory cells, p<0.05, FIGS. 8 and 9
Protocol: After the ear auricle of the NC/Nga mouse was shaved with a razor, the epilating agent was applied in an appropriate amount for the complete depilation. After the epilating agent was wiped off, Then, 100 mg of the AD-inducing reagent shown in Table 2 as below was uniformly applied to the ear auricle using a micropipette tip, thereby inducing atopic dermatitis for the first time. After shaving with a razor for necessary, 150 μL of a 4% SDS aqueous solution was uniformly applied to the ear auricle using a micropipette, dried with a cold air using a dryer, and air-dried for about 2 to 3 hours. Then, 100 mg of the same AD-inducing reagent was uniformly applied to the ear auricle using a micropipette tip, thereby inducing atopic dermatitis after 2 times. All treatments were carried out twice a week to be 6 times for a total of 3 weeks, thereby producing atopic dermatitis animal model. The mice of groups 2 to 5 were obtained by the atopic dermatitis animal model prepared in Experimental Method 3 as described above. The experimental substance and the control substance were uniformly applied to the ear auricle using a micropipette tip. From the day of the experimental substance administration (Day 0) to the day of the autopsy (Day 14), they were administered once a day for 2 weeks. On the day of the autopsy, ears were removed for the histopathological examination and fixed in 10% neutral buffered formalin solution. The fixed tissues were subject to the general tissue treatment such as reprofiling, dehydration, paraffin embedding, and dissection, thereby preparing specimens for histopathological examination. Then, hematoxylin and eosin (H & E) and TUNEL assays were performed on histopathologic specimens, and the light microscopy (Olympus BX53, Japan) was used to observe histopathologic changes. In the histopathologic evaluation using hematoxylin and eosin staining slides, in order to compare the degree of the lesion with the induced control group, the most severe lesion was selected, and then the hypertrophy, hyperkeratosis and infiltration by inflammatory cells were evaluated in the epidermis. In the dermis, the infiltration by inflammatory cells was evaluated. Scoring criteria are the same as 0 (no symptoms), 1 (mild), 2 (moderate), and 3 (severe) (Taniguchi Y et al 2003).

[2] = tested on: atopic dermatitis animal model; experiment: Ear thickness measurement in atopic dermatitis animal model; format: in vivo, NC/Nga mouse; conditions: FIG. 2
Protocol: After the ear auricle of the NC/Nga mouse was shaved with a razor, the epilating agent was applied in an appropriate amount for the complete depilation. After the epilating agent was wiped off, Then, 100 mg of the AD-inducing reagent shown in Table 2 as below was uniformly applied to the ear auricle using a micropipette tip, thereby inducing atopic dermatitis for the first time. After shaving with a razor for necessary, 150 μL of a 4% SDS aqueous solution was uniformly applied to the ear auricle using a micropipette, dried with a cold air using a dryer, and air-dried for about 2 to 3 hours. Then, 100 mg of the same AD-inducing reagent was uniformly applied to the ear auricle using a micropipette tip, thereby inducing atopic dermatitis after 2 times. All treatments were carried out twice a week to be 6 times for a total of 3 weeks, thereby producing atopic dermatitis animal model. The mice of groups 2 to 5 were obtained by the atopic dermatitis animal model prepared in Experimental Method 3 as described above. The experimental substance and the control substance were uniformly applied to the ear auricle using a micropipette tip. From the day of the experimental substance administration (Day 0) to the day of the autopsy (Day 14), they were administered once a day for 2 weeks. Ear thickness was measured for each individual by calipers, and the ear area was photographed. Ear thickness measurement and photographing were performed once a week on the day of starting the experimental substance administration and thereafter.

IgE = experiment: ELISA analysis of serum IgE in atopic dermatitis animal model; conditions: day of autopsy (Day 14)
[3] = tested on: atopic mouse skin tissues; experiment: Immunohistochemical staining of atopic mouse skin tissue (angiogenic marker, inflammatory cells, keratin); format: in vivo, NC/Nga mouse; conditions: atopic mouse skin tissue, also similar to prednisolone treated group
Protocol: as §1, §2, §3, §4
Atopy mouse skin tissues were immersed in Xylene three times for 5 minutes, 100% ethanol for 2 minutes, 95% ethanol for 2 minutes, 90% ethanol for 2 minutes, 70% ethanol for 2 minutes and D.W. for 2 minutes to remove paraffin and to perform hydration. After washing with PBS, they were treated with 0.2% Triton X-100 to increase cell permeability. After re-washing with PBS, they were reacted with blocking solution, 3% bovine serum albumin, for 1 hour. For inflammatory cells and keratin staining, they were reacted with F4/80 (sc-377009, Santa Cruz) and cytokeratin (NB600-579, NOVUSBIO) antibodies, respectively, at room temperature for 2 hours. After washing with PBS, they were treated with Texas Red (ab6787, Abcam) secondary antibody and reacted at room temperature for 60 minutes. The mounting solution was dropped on the tissue of the slide. Then, the tissue was covered with a cover slide, and the sample was observed under a fluorescence microscope. For analysis of the degree of angiogenesis, the atopic skin tissue was reacted with FITC-conjugated isolectin B4 (L2895, Sigma), a blood vessel marker at room temperature for 2 hours. The mounting solution was dropped on the tissue of the slide. Then, the tissue was covered with a cover slide, and the sample was observed under a fluorescence microscope
The mouse skin tissues stained with the respective markers were photographed using a fluorescence microscope (DMil, Leica, Germany), and fluorescence intensities were quantitatively analyzed using an ImageJ program (NIH, Bethesda, Md., USA).

Question: Which “histamine level compared with prednisolone treated group” value (histamine; FIG. 7) does the source give for “VKCFNCGKEGHTARNCRAPRKKGCWKCGKEGHQMKDCTERLYE (ACP-tetrapeptide) [ACP cell penetrating peptide linked at the N-terminal of the tetrapeptide]” here?
Answer: lower than that of the prednisolone treated group

Question: What about the “histamine level compared with group 2 (induced control)” value (histamine; p<0.001 or p<0.01, FIG. 7) of the same sequence?
Answer: significantly lower

Question: And the “cell membrane permeability (transfer into cells)” value (HeLa cells)?
Answer: transferred into the cells through ACP in a concentration-dependent manner without aggregation in the cell membrane

Question: What about the “epidermis score level compared with group 2” value ([1]; hypertrophy, hyperkeratosis) of the same sequence?
Answer: significantly lower

Question: What about the “dermis score level compared with group 2” value [1] of the same sequence?
Answer: significantly lower

Question: What about the “ear thickness compared with induced control group (group 2)” value ([2]; 7th and 14th day after administration, tetrapeptide 0.622, ACP-tetrapeptide 4.987, prednisolone 50 μg/ear once a day, p<0.001 or p<0.01) of the same sequence?
Answer: significantly thinner

Question: And the “ear thickness compared with normal control group (group 1)” value ([2]; 14th day after administration, p<0.001)?
Answer: significantly thicker

Question: What about the “IgE level compared with prednisolone treated group” value (IgE; FIG. 7) of the same sequence?
Answer: lower than that of the prednisolone treated group

Question: What about the “IgE level compared with group 2 (induced control)” value (IgE; p<0.001 or p<0.01, FIG. 7) of the same sequence?
Answer: significantly lower

Question: What about the “IgE level compared with normal control group” value (IgE; p<0.001 or p<0.01, FIG. 7) of the same sequence?
Answer: significantly higher

Question: What about the “angiogenesis (Isolectin B4 staining)” value ([3]; FIG. 10) of the same sequence?
Answer: lower than that of the inducted control group

Question: And the “inflammatory cell inflow (F4/80 staining)” value ([3]; FIG. 11)?
Answer: lower than that of the inducted control group

Question: And the “keratinization and fibrosis (cytokeratin staining)” value ([3]; FIG. 12)?
Answer: lower than that of the inducted control group
